Experiment: Solid-state stability of the amorphous form
Assay type: physicochemical

stability of the amorphous form: unstable | time until the amorphous material changed into molten state: ≤ 30 min
SMILES: CC(C)c1nc(CN(C)C(=O)N[C@H](C(=O)N[C@@H](Cc2ccccc2)C[C@H](O)[C@H](Cc2ccccc2)NC(=O)OCc2cncs2)C(C)C)cs1 [(5S,8S,10S,11S)-10-Hydroxy-2-methyl-5-(1-methylethyl)-1-[2-(1-methylethyl)-4-thiazolyl]-3,6-dioxo-8,11-bis(phenylmethyl)-2,4,7,12-tetraazatridecan-13-oic acid 5-thiazolylmethyl ester]

— patent US9096556B2, “Amorphous ritonavir co-precipitated” (HETERO RESEARCH FOUNDATION, priority 2011, dated 2015)
